We go through one molecule from paper PMC7536232, “Saturation transfer difference NMR on the integral trimeric membrane transport protein GltPh determines cooperative substrate binding” (Scientific Reports, 2020).

The structures appear in SMILES notation.

The assay concerns the target T1, GltPh (Pyrococcus horikoshii, UniProt O59010).
T1 construct: gene PH1295; WT GltPh, homotrimer, detergent-solubilised (DDM)
T1 sequence (O59010 1-425): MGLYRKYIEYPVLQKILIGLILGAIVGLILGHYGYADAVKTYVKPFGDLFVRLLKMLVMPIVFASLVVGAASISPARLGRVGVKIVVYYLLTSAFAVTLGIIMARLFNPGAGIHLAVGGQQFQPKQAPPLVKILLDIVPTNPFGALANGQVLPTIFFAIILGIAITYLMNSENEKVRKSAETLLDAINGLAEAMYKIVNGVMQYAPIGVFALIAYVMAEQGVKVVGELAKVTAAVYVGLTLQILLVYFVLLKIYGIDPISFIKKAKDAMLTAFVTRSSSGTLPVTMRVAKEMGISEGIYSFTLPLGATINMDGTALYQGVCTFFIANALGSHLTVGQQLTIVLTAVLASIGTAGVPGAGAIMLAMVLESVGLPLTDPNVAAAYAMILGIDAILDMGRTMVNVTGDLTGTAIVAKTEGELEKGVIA
Put plainly: STD NMR titration, γ-protons; DDM micelles ([…] in proteoliposomes). It is filed as binding.

On to `N[C@@H](CCC(=O)O)C(=O)O` [L-glutamate], for which the Kd (as a rule, the constant that tells how readily two partners part at equilibrium) is 414 µM.
